Experimental findings from ChEMBL document CHEMBL1158319, “New protopine and benzyltetrahydroprotoberberine alkaloids from Aristolochia constricta and their activity on isolated guinea-pig ileum” (J Nat Prod, 1997) are described below.

Assay type in all cases: functional, tissue-based
Holding throughout (settings): Cavia porcellus, 0.5 h

Experiment [1] deals with Ileum. As to the kind of experiment: Antispasmodic activity in guinea pig ileum assessed as inhibition of acetylcholine-induced tissue contraction after 30 mins.
Experiment [2] deals with Ileum. In words: Antispasmodic activity in guinea pig ileum assessed as inhibition of histamine-induced tissue contraction after 30 mins.
For experiment [3], the system named is Ileum. As to the kind of experiment: Antispasmodic activity in guinea pig ileum assessed as inhibition of electrically-induced tissue contraction after 30 mins.

As usually defined, the IC50 is the midpoint of a concentration-inhibition curve. Turning to `COc1ccc2c(c1)/C=C\N=C\c1cc(O)ccc1CC2=O`, the half-inhibitory concentration (IC50) was found to be 85 µM in experiment [1], 59 µM in experiment [2] and 86 µM in experiment [3].
On the same counts, the results for `COc1ccc2c(c1)/C=C\N=C\c1cc(OC)ccc1CC2=O` are 58 µM, 68 µM and 66 µM.
On the same counts, the results for `O=C1Cc2ccc(O)cc2/C=N/CCc2cc(O)ccc21` are 26 µM, 26 µM and 21 µM.
On the same counts, the results for `COc1ccc2c(c1)/C=N/CCc1cc(OC)ccc1C(=O)C2` are 20 µM, 22 µM and 19 µM.
Consider `O=C1Cc2ccc(O)cc2/C=N/C=C\c2cc(O)ccc21` [CONSTRICTOSINE], for which the IC50 in experiment [1] came out at 75 µM; in experiment [2] it was 51 µM; in experiment [3], 66 µM.
